# According to publication PMC3508689 (Biochemistry, 2011):
# Molecular target: T1, human PPM1D catalytic domain (residues 1–420) (Homo sapiens, UniProt O15297)
# T1 sequence (O15297 1-420): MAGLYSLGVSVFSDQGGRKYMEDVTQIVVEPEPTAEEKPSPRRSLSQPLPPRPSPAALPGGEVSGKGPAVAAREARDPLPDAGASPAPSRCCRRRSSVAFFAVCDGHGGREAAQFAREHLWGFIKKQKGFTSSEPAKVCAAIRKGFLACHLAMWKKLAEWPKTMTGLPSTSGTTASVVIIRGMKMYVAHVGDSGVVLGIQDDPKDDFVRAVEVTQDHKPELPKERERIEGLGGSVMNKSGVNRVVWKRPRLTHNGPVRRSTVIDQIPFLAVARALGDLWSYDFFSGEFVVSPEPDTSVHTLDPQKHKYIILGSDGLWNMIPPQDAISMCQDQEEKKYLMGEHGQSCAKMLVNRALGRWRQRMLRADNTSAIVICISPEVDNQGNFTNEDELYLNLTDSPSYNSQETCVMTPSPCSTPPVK
# Format: biochemical
# Details: cyclic peptide 25 μM, ATM substrate peptide 30 μM
row,inhibitory activity against PPM1D (in words),Substance
1,no significant inhibitory activity,cyclo[(D-Asp)-(D-Asp)-(D-pY)-(D-I)-(D-pS)-(D-F)-C]-amide [peptide 47]
2,did not show inhibitory activity,cyclo(F-F2Pab-I-pY-DDC)-amide [peptide 44]
